Test results from patent US8765798B2, “Peptide derivatives with therapeutic activity” (Flamma S.p.A., priority 2006, dated 2014).

Experiment: carbonyl-quenching activity on HNE in vitro (residual HNE by reversed-phase chromatography)
Conditions: for reacted HNE (%) t = 1 h mean / reacted HNE (%) t = 3 h mean / reacted HNE (%) t = 2 h mean: HNE 50 μM, compound 1 mM, phosphate buffer 10 mM pH 7.4, 37° C.; for reacted HNE (%) t = 1 h mean: one hour incubation; for reacted HNE (%) t = 3 h mean: three hours incubation; for reacted HNE (%) t = 2 h mean: two hours incubation
Experimental: The pharmacological activity of the compounds of the invention was determined in vitro evaluating their carbonyl-quenching activity on 4-hydroxy nonenal (HNE), which is known to be involved in a number of pathologies.
The carbonyl-quenching activity of a selected series of compounds of the present invention was assessed in vitro, incubating HNE (50 μM) with the tested compounds (1 mM), in phosphate buffer (10 mM) pH 7.4 at 37° C. The activity was evaluated after one, two and three hours incubation, determining the residual content of HNE by reversed-phase chromatography as described by Aldini G et al. [Biochem Biophys Res Commun. 2002 Nov. 15; 298(5):699-706]. The carbonyl-quenching activity is expressed as the reacted HNE percent compared with the HNE content in the absence of the test compounds.

NCCC(=O)N[C@@H](Cc1cnc[nH]1)C(=O)O [Carnosine, reference compound]
reacted HNE (%) t = 1 h mean: 17.39% | reacted HNE (%) t = 3 h mean: 43.59% | reacted HNE (%) t = 2 h mean: 31.65%

C[C@H](N)CC(=O)N[C@H](Cc1c[nH]cn1)C(=O)O [FL-926-A-002, (3S)-3-aminobutanoyl-D-histidine]
reacted HNE (%) t = 1 h mean: 6.568% | reacted HNE (%) t = 3 h mean: 21.58% | reacted HNE (%) t = 2 h mean: 14.26%

N[C@@H](Cc1ccccc1)[C@@H](O)C(=O)N[C@H](Cc1c[nH]cn1)C(=O)O [FL-926-A-005, (2R,3S)-3-amino-2-hydroxy-4-phenylbutanoyl-D-histidine]
reacted HNE (%) t = 1 h mean: 15.2% | reacted HNE (%) t = 3 h mean: 38.56% | reacted HNE (%) t = 2 h mean: 27.75%

N[C@@H](CC(=O)N[C@H](Cc1c[nH]cn1)C(=O)O)c1ccccc1 [FL-926-A-006, (3S)-3-amino-3-phenylpropanoyl-D-histidine]
reacted HNE (%) t = 1 h mean: 29.3% | reacted HNE (%) t = 3 h mean: 65.8531% | reacted HNE (%) t = 2 h mean: 50.7209% | carbonyl-quenching activity compared with carnosine (after one hour incubation): almost twice as high
